Like-named read-outs stand apart in the source and are kept apart here.
Columns and labels:
[1] = Solubility of MSLs in water
From the text: If the material precipitates upon cooling or was to some extent insoluble, the insoluble material was separated by filtration, dried and weighed.

[2] = Surface tension versus surfactant concentration: CMC and minimum surface tension; assay type: physicochemical; conditions: SL-amides; 25° C.
Experimental: The surface tension change with the increase of surfactant concentration of a series of SL amides was measured at 25° C. and the results are shown in Table 2. CMC and minimum surface tension (MST) decrease as the chain length of the n-alkyl amide moiety increase. […] This trend can be explained by the increased hydrophobicity of the surfactant hydrophobic tail with increased chain length of the n-alkyl amide.
The relation of CMC within a homologous series of surfactants and the carbon chain length (straight-chain), n, is usually described as: Log (CMC)=A−Bn (1)
Where A and B are constants specific to the series and n is the carbon on the hydrophobic chains. It was reported that the CMC of alkyl-β-D-glucoside decreased by ⅓ for each additional CH2 group (L. Zhang. D.E.S. Thesis, Columbia University). For a series of SL-esters prepared from n-alkanols of varying chain length, the CMC decreased by ½ per additional CH2 group (L. Zhang Colloid Surface, 240, 2004, 75).

[3] = Emulsion droplet size distribution, Coulter LS 230 analyzer; assay type: physicochemical; conditions: paraffin oil-to-water 7:3 v/v, 25° C.
Experimental: Emulsified oil droplet size (average and standard deviation) was measured after suitable dilution of the emulsion phase using a Coulter LS 230 analyzer. […] Relative to natural and lactonic SL, selected MSLs show improved properties as emulsifiers on paraffin oil.
After being aged for 3-months, emulsified oil droplet size (average and standard deviation) was measured after suitable dilution of the emulsion phase using a Coulter LS 230 analyzer and the results are listed in Table 5. […] However, increasing the surfactant concentration from 1 to 2% did result in substantially smaller emulsion-phase droplet sizes. […] This is evidence that MSL's can stabilize oil phases greatly decreasing their tendency to undergo coalescence. […] It follows that the results of 3-month aging studies support the utility of selected MSLs for formation and stabilization of oil-in-water emulsions of paraffin oil phases. One skilled in the art would expect that the ability of these MSLs to stabilize paraffin oil phases teaches that they would also stabilize oil phases of similar structure.

[4] = Emulsion type: dilution test and oil soluble dye staining; assay type: physicochemical; conditions: for emulsion type by Oil Red O staining: 2%-by-weight relative to water phase, oil/water 5/5 and 7/3
Experimental: In this test the emulsion is diluted either with oil (O) or water (W). If the emulsion is O/W type and it is diluted with water, it will remain stable as water is the dispersion medium. However, if the emulsion is O/W type and it is diluted with oil, the emulsion will break as oil and water are not miscible with each other. […] Emulsions of the O/W type have separated layers after dilution with pure oil but form a homogenous phase when diluted by water. Unless otherwise specified, the emulsion type formed by MSLs were oil in water.
In FIG. 13B, the tube on the left was diluted with 1 mL of oil whereas the tube on right was diluted with water. Visual observation of the tubes in FIG. 13B supports that the emulsions formed are indeed O/W emulsions.
Oil Red O was applied as an oil soluble dye and emerald green as water soluble dye in the process of emulsion preparation. Observations of emulsions were made before and after staining under optical microscope at 400× magnification (FIG. 14). […] The formation of O/W emulsions and not W/O emulsions with this set of MSL compounds would not be obvious to one skilled in the art. We believe that O/W emulsions are formed by this set of MSLs due to that large sophorose polar head groups requires relatively more space than the lipid tails and, therefore self-assemble into spherical type structures where disaccharide groups are locating outside the droplets.

[5] = Emulsion stability based on phase separation; assay type: physicochemical; conditions: for emulsion layer percentage: paraffin oil/water 5/5, 2%-by-weight emulsifier, after 24 hours at 25° C.
Experimental: The emulsion was obtained by homogenizing the oil and water mixture and was allowed to settle at room temperature for 24 hours. […] Then, this mixture was homogenized at 13,000 rpm for 2 minutes. Thereafter, the resulting emulsion was left unagitated at 25° C. for 24 hours. Surfactants which give a larger emulsion phase are denoted as having higher emulsion effectiveness (Process Safety and Environment protection, 2005, 83, 38-46). […] Thus, unexpectedly, that longer alkyl chains, at least up to butyl and hexyl, provided improved interfacial stability at the paraffin oil/water interface. […] Apparently, ester bonds of SL-esters are less disruptive to organization at the oil water interface than amide bonds of SL-amides. […] The acidic SL (3) gave an 8% emulsion layer, much lower than the MSL examples given herein. Similarly, the natural SL (1) mixture gave a 10% emulsion layer. This performance is also far below that of SL-butyl amide (24), hexyl amide (25), butyl ester (8) and hexyl ester (16).
After homogenized at 13,000 rpm for 2 minutes, the emulsions were kept at room temperature and separation of the respective oil, emulsion and water layers was recorded for up to 1 month.

[6] = Emulsion viscosity measurement; assay type: physicochemical; conditions: oil/water 7/3, 1% MSL, shear rate 1 S^−1
Experimental: Viscosity was measured at 25° C. with increasing shear rate from 1 S^−1 to 750 S^−1. The viscosity change was monitored for aging times up to 3 months. For all samples, the paraffin oil/water ratio is 7/3 and the surfactant concentrations studied were 0.5%, 1% to 2%-by-weight relative to the oil phase. FIG. 19 presents the viscosity change with shear rate for different aging times. […] The emulsion tested was prepared using 2%-by-weight SL-butyl ester relative to paraffin oil. Viscosity decreases with increased shear rate implying the emulsion follows shear shinning. Furthermore, viscosity decreased with increased storage time. […] This change is consistent with the small increase in oil phase particle size (1.7 to 2.1 μm) with aging from 1 day to 3-months (Tables 4 and 5).
Values of ηlow decreased with storage time to various extents that are dependent on the MSL compound used to stabilize the emulsion. […] The relative ability of different MSL structures to stabilize emulsions and thereby decrease the extent of decrease in viscosity as a function of aging time would not be predictable by one skilled in the art. The behavior as a function of MSL structure is related to emulsion dispersed phase droplet size. That is, the smaller the change in droplet size, the less decrease in emulsion viscosity occurs with increased aging time. Smaller changes in droplet size reflects the ability of the emulsifier to better stabilize particles. For example, the viscosity of the emulsion stabilized by SL-butyl amide decreased by 65% (from 344 Pas to 120 Pas) whereas the viscosity of the emulsion stabilized by SL-hexyl ester decreased by 20% (from 457 Pas to […]).
The viscosity was measured 24 hours after emulsion preparation. The viscosity increased with increasing surfactant concentration. Such behavior could not have been predicted by one skilled in the art without the teaching provided in this disclosure. The extent of viscosity change with surfactant concentration is related to the interfacial free energy at the droplet surface that reduces with the increase of surfactant concentration.

[7] = Crude oil clearing/displacement activity; conditions: 20 μL of 1 mg/mL solution
Experimental: Oil cleaning assays were performed using Louisiana Crude, Arabian Light Crude, and Prudhoe Bay Crude as the oil phase. In one study, the oil clearing/displacement activity of MSLs were assessed using a crude oil layer on top of sea water in order to simulate oil spill type conditions. Sea water (20 mL) was transferred to plastic Petri dishes and 20 μL of a crude oil type was added on top of the water to create an oil layer. Subsequently, a 20 μL aliquot of MSL solution (1 mg/mL) was added dropwise to the top of the oil layer. The instantaneous formation of an oil clearing zone as well as the diameter of the clearing zone was determined as a function of the dispersant used. […] Furthermore, the oil displacement activity of SL-ethyl ester and SL-butyl ester was slightly higher than Triton-X-100 for Arabian Light crude.

[8] = SL-esters; from earlier publication in Colloids and surfaces, 2004, 240, 75; cited from earlier work
[9] = Solubility in distilled water without additives, compounds alone and mixed; conditions: without any additives
[10] = Crude oil emulsification activity (turbidity at 610 nm); conditions: emulsifier 1 mg/mL
Experimental: Emulsification activity was assessed using Louisiana Crude, Arabian Light Crude, and Prudhoe Bay Crude as the oil phase. A 2 mL solution with emulsifier concentration of 1 mg/mL was prepared. A crude oil (10 mg) was added to the emulsifier aqueous solution, the mixture was vortexed for one minute and the emulsified mixture was allowed to stand for 20 minutes. Emulsification activity was determined by measuring turbidity of the emulsion mixture in a spectrophotometer at 610 nm. The results obtained using SL-ethyl ester, SL-butyl ester, the natural sophorolipid mixture and Triton X-100 as emulsifiers are expressed as D610 and are listed in Table 8. […] Furthermore, a remarkable improvement in emulsification activity was obtained for SL-butyl ester relative to the natural sophorolipid mixture. These comparative results for emulsification of Louisiana Crude, Arabian Light Crude, and Prudhoe Bay Crude oil phase could not be anticipated by one skilled in the art.

[11] = Arabian Light Crude on sea water

Row | SMILES | Solubility ([1]; distilled water, 25° C.) | CMC Range [2] | MST (minimum surface tension) [2] | Average droplet size ([3]; 0.5 weight %, 24 hours) | Average droplet size ([3]; 0.5 weight %, aged 3-months) | Average droplet size ([3]; 1 weight %, 24 hours) | Average droplet size ([3]; 1 weight %, aged 3-months) | Average droplet size ([3]; 2 weight %, 24 hours) | Average droplet size ([3]; 2 weight %, aged 3-months) | emulsion type by Oil Red O staining [4] | emulsion layer percentage [5] | Solubility [1] | Oil displacement activity (diameter of the clearing zone) [7, 11] | Oil displacement activity (diameter of the clearing zone) ([7]; Louisiana Crude on sea water) | Oil displacement activity (diameter of the clearing zone) ([7]; Prudhoe Bay Crude on sea water) | CMC Range [8] | MST (minimum surface tension) [8] | solubility in distilled water [9] | other results
1 | CCCCCCNC(=O)CCCCCCCC=CCCCCCCC(C)OC1OC(CO)C(O)C(O)C1OC1OC(CO)C(O)C(O)C1O (stereo not drawn) [Compound 25, SL-Hexyl Amide] | <11000 µg/mL | 29-32 10^−6M | 36.5 mN/m | 2.7 ± 0.4 μm | 4.0 ± 0.4 μm | 2.7 ± 0.2 μm | 3.7 ± 0.7 μm | 1.7 ± 0.1 μm | 2.2 ± 0.5 μm | O/W | 60% |  |  |  |  |  |  |  | emulsion type by dilution test ([4]; 2 weight % emulsifier, water/oil ratio 5/5, paraffin): O/W emulsions; emulsion layer volume-%, one month ([5]; oil/water 5/5, 2%-by-weight, one month at room temperature): 10%; emulsion layer volume-%, start ([5]; oil/water 5/5, 2%-by-weight, start of aging): 65%
2 | CCNC(=O)CCCCCCCC=CCCCCCCC(C)OC1OC(CO)C(O)C(O)C1OC1OC(CO)C(O)C(O)C1O (stereo not drawn) [Compound 23, SL-Ethyl Amide] |  | 300-310 10^−6M | 40.9 mN/m |  |  |  |  |  |  | O/W | no emulsion layer was observed | >40000 µg/mL |  |  |  |  |  |  | 
3 | CNC(=O)CCCCCCCC=CCCCCCCC(C)OC1OC(CO)C(O)C(O)C1OC1OC(CO)C(O)C(O)C1O (stereo not drawn) [Compound 22, SL-Methyl Amide] |  | 650-670 10^−6M | 43.3 mN/m |  |  |  |  |  |  | O/W | no emulsion layer was observed |  |  |  |  |  |  |  | 
4 | CCCCNC(=O)CCCCCCCC=CCCCCCCC(C)OC1OC(CO)C(O)C(O)C1OC1OC(CO)C(O)C(O)C1O (stereo not drawn) [Compound 24, SL-Butyl Amide] |  | 45-50 10^−6M | 38.7 mN/m | 3.0 ± 0.2 μm | 6.3 ± 1.0 μm | 2.5 ± 0.2 μm | 4.7 ± 0.8 μm | 1.9 ± 0.1 μm | 3.0 ± 0.4 μm | O/W | 20% | >40000 µg/mL |  |  |  |  |  |  | low shear emulsion viscosity, after aging period [6]: 120 Pas; low shear emulsion viscosity, before aging [6]: 344 Pas; viscosity decrease over the aging period [6]: 65%; emulsion layer in 3 days ([5]; oil/water 5/5, 2%-by-weight, 3 days): not observed in 3 days
5 | COC(=O)CCCCCCCC=CCCCCCCC(C)OC1OC(CO)C(O)C(O)C1OC1OC(CO)C(O)C(O)C1O (stereo not drawn) [Compound 6, SL-Methyl Ester] | <1000 µg/mL |  |  |  |  |  |  |  |  | O/W | no emulsion layer was observed |  | 5.5 ± 0.1 cm | 6.5 ± 0.4 cm | 6.9 ± 0.1 cm | 95-100 10^−6M | 38.4 mN/m | less than 1 mg/L | Solubility ([1]; distilled water, 25° C., listed as methyl ester): < 1000 µg/mL
6 | CCOC(=O)CCCCCCCC=CCCCCCCC(C)OC1OC(CO)C(O)C(O)C1OC1OC(CO)C(O)C(O)C1O (stereo not drawn) [Compound 7, SL-Ethyl Ester] |  |  |  |  |  |  |  |  |  | O/W | no emulsion layer was observed | <3000 µg/mL | 6.5 ± 0.2 cm | 6.3 ± 0.9 cm | 6.6 ± 0.7 cm | 36-40 10^−6M | 37.5 mN/m | less than 1 mg/L | Emulsification activity (D610) ([10]; Arabian Crude): 0.91; Emulsification activity (D610) ([10]; Louisiana Crude): 0.42; Emulsification activity (D610) ([10]; Prudhoe Crude): 0.32

Reference: patent US9650405B2, “Modified sophorolipids as oil solubilizing agents” (Polytechnic Institute of New York University, priority 2010, dated 2017)
